# Measurements reported in patent US4847302A, “Use of certain compounds in livestock food as growth promotants for better feed utilization and improved carcass composition” (Merck & Co., Inc., priority 1988, dated 1989).
# Read-outs that look alike come from different tables or passages of the source.
# How the values were obtained:
# [1] = Baker et al., Fed. Proc. 42; some species of food livestock; cited from earlier work
# [2] = system: Isolated Chicken Hepatocytes; experiment: Inhibition of lipogenesis (14C acetate incorporation) in isolated chicken hepatocytes; assay type: cell-based; conditions: Gallus gallus, Hepatocyte, 2 h
# Experimental: Determination of anti-lipogenic activity in hepatocytes
# Hepatocytes were isolated from chicken liver using the procedure for adipocytes and incubated for 2 hours at 37° C. in the presence of ^14 C acetate and test compounds. […] Isoproterenol, at the same concentrations, was used as a positive control. After incubation, 8 ml Doles reagent (isopropanol:hexane:H2 SO4, 40:10:1) was added and incubation vials were shaken at room temperature for 30 minutes. Vial contents were poured into 50 ml screw-cap tubes. Vials were then rinsed with 6 ml hexane which was poured into the appropriate 50 ml tube. Tubes were shaken by hand, 10 ml H2 O was added, and tubes were shaken again. After phase separation, 2 ml of the upper (hexane) phase was removed to scintillation vials. Hexane was evaporated by a gentle air flow and the remaining lipids were resuspended in 10 ml Scinti Verse II. ^14 C was counted in a Packard liquid scintillation counter. Data are reported as CPM of ^14 C acetate incorporated into total lipids.
# [3] = system: Isolated Swine Adipocytes; experiment: Stimulation of lipolysis (glycerol production) in isolated swine adipocytes; assay type: cell-based; conditions: for activation at 0.01 µM / activation at 0.05 µM / activation at 0.25 µM: Sus scrofa, Adipocyte, 2 h
# Experimental: (§1) Fat was collected from freshly killed animals as follows: epididymal and perirenal fat from 150 to 200 g male rates; perirenal fat from 20 to 25 kg whether lambs, and perirenal and omental fat from 35 to 50 kg gilts. Immediately after collection, fat was placed in a siliconized beaker (all glassware was siliconized) containing Krebs-Ringer bicarbonate solution (KRB; pH 7.4) at 37° C. Fat was transferred to a clean beaker and finely chopped with scissors. Chopped fat was then used as such (whole adipose preparation) or treated with collagenase (isolated adipocytes).
# (§2) Chopped fat was placed in a shaker containing 70 ml cell dispersion medium (CDM; 5 mM glucose, 0.1% collagenase, 4% bovine serum albumin (BSA), in KRB) and incubated at 37° C. for 1 hour with gentle shaking. Fat was then filtered to remove clumps and washed 4 times with washing medium (WM; 2.5 mM glucose, 1% BSA, in KRB) and 1 time with final suspension medium (FSM; 2.5 mM glucose, 2% essentially fatty acid free BSA, in KRB). Isolated adipocytes were then resuspended in the required amount of FSM (1 ml/flask, 3 flasks/treatment).
# (§3) Whole adipose tissue from the rat (0.3 ml) or isolated adipocytes from sheep or swine (1 ml) were placed in plastic scintillation vials containing FSM (1.7 or 1 ml, respectively) and test compounds, and incubated at 37° C. for 2 hours. […] Isoproterenol, at the same concentrations, was used as a positive control. After incubation, media was removed and assayed for glycerol by a fluorometric modification of the method of Wieland (1974. Glycerol UV-method. pp. 1404. In: Bergmeyer (Ed.) Methods of Enzymatic Analysis. Verlag Chemie Weinham, Academic Press, New York).
# [4] = system: Isolated Ovine Adipocytes; experiment: Stimulation of lipolysis (glycerol production) in isolated ovine adipocytes; assay type: cell-based, sheep
# Experimental: as §1, §2, §3
# [5] = Growth, feed conversion and carcass composition of broilers raised in floor pens for 7 weeks; assay type: in vivo; conditions: 0.5 ppm in diet
# Experimental: Compound V (bitolterol) was compared to clenbuterol for effects on growth, feed conversion and carcass composition of broilers raised in floor pens for 7 weeks. […] Bitolterol at the highest dose improved rate of gain 2.6% (P 0.01), feed conversion 3.8% (P 0.05) and carcass protein 4.9% (P 0.10).
# Clenbuterol at 0.5 ppm in the diet was administered for 7 weeks to one group and only during the last 4 weeks to another group. […] Clenbuterol given for 7 weeks improved feed conversion 3.5% (P 0.05) and appeared to improve (not significant) rate of gain 0.4%, carcass weight 0.7% and carcass protein 4.0% and to decrease (not significant) carcass fat 7.1%.
# [6] = system: Rat Adipose Tissue; experiment: Stimulation of lipolysis (glycerol production) in chopped rat adipose tissue; assay type: cell-based; conditions: Rattus norvegicus, 2 h
# Experimental: as §1
# as §3, with “York). […]” for “York).”
# [7] = Growth promoting activity / feed utilization in livestock (general statements); assay type: in vivo; conditions: poultry, sheep or swine
# [8] = In vivo testing in rats: growth, feed conversion and carcass composition; set-up: species or system rat (male Charles River CD); conditions: in diet; for Gain / Feed Intake / Weight / Carcass Composition % of Change over Control, Fat / Carcass Composition % of Change over Control, Protein: dose equivalent to 20 ppm clenbuterol (clenbuterol: 10)
# In short: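 Male Charles River CD rats (75-90 g), ten per group, randomized by weight after four days' acclimation. Compounds premixed into ground chow at doses equivalent to 20 ppm clenbuterol on a molecular weight basis; growth, feed conversion and carcass composition assessed.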
# [9] = read-out: percent change compared to control, 14C acetate incorporation in fatty acids, Test 1
# [10] = read-out: percent change compared to control, 14C acetate incorporation in fatty acids, Test 2
# [11] = read-out: percent increase compared to control, glycerol production, Test 1
# [12] = read-out: percent increase compared to control, glycerol production, Test 2
compound,measurement,setting,value
"CC(C)(C)NCC(O)c1cc(Cl)c(N)c(Cl)c1 (stereo not shown) [Clenbuterol, clenbuterol]",enhancement of food utilization and change of carcass composition,[1],functions in this way
same,inhibition at 0.01 µM,[2]; [9],4.2%
same,inhibition at 0.05 µM,[2]; [9],16.4%
same,inhibition at 0.25 µM,[2]; [9],24.6%
same,inhibition at 0.01 µM,[2]; [10],8%
same,inhibition at 0.05 µM,[2]; [10],18%
same,inhibition at 0.25 µM,[2]; [10],16%
same,activation at 0.01 µM,[3]; [11],27%
same,activation at 0.05 µM,[3]; [11],-20%
same,activation at 0.25 µM,[3]; [11],-27%
same,activation at 0.01 µM,[3]; [12],0%
same,activation at 0.05 µM,[3]; [12],-20%
same,activation at 0.25 µM,[3]; [12],4%
same,lipolytic activity (in words),[3]; isolated swine adipocytes,lack of activity
same,activation at 0.05 µM,"[4]; Ovis aries, Adipocyte, 2 h, read-out: percent increase compared to control, glycerol production, Test 1",240%
same,activation at 0.25 µM,"[4]; Ovis aries, Adipocyte, 2 h, read-out: percent increase compared to control, glycerol production, Test 1, 0.25 μM",325%
same,activation at 0.01 µM,"[4]; Ovis aries, Adipocyte, 2 h, read-out: percent increase compared to control, glycerol production, Test 2, 0.01 μM",186%
same,activation at 0.05 µM,"[4]; Ovis aries, Adipocyte, 2 h, read-out: percent increase compared to control, glycerol production, Test 2",857%
same,"percent increase compared to control, glycerol production","[4]; Test 1, 0.01 μM",inactive
same,"feed conversion and carcass protein, 7 weeks versus 4 weeks of administration",[5],slightly more effective
same,improvement of feed conversion,"[5]; 7 weeks, P 0.05",3.5%
same,decrease of carcass fat,"[5]; 7 weeks, not significant",7.1%
same,improvement of carcass protein,"[5]; 7 weeks, not significant",4.0%
same,improvement of carcass weight,"[5]; 7 weeks, not significant",0.7%
same,improvement of rate of gain,"[5]; 7 weeks, not significant",0.4%
same,activation at 0.01 µM,[6]; [11],12%
same,activation at 0.05 µM,[6]; [11],26%
same,activation at 0.25 µM,[6]; [11],21%
same,activation at 0.01 µM,[6]; [12],10%
same,activation at 0.05 µM,[6]; [12],10%
same,activation at 0.25 µM,[6]; [12],16%
same,"activity compared with other compounds in poultry, sheep or swine",[7],"not as active as other compounds in poultry, sheep or swine"
same,Gain,"[8]; Test 1, control 7.3",7.8 g/day
same,Feed Intake,"[8]; Test 1, control 18.6",19.2 g/day
same,Weight,"[8]; Test 1, control 191.8",198.6 g
same,"Carcass Composition % of Change over Control, Fat",[8]; Test 1,-11.3%
same,"Carcass Composition % of Change over Control, Protein",[8]; Test 1,11.2%
same,Gain,"[8]; Test 2, control 7.5",8.2 g/day
same,Feed Intake,"[8]; Test 2, control 19.3",19.9 g/day
same,Weight,"[8]; Test 2, control 202.3",216.9 g
same,"Carcass Composition % of Change over Control, Fat",[8]; Test 2,-11.9%
same,"Carcass Composition % of Change over Control, Protein",[8]; Test 2,4.3%
same,minimum dose needed to give maximum improvements in gain and feed conversion,[8]; previously determined,10 ppm
